{
  "source": "patent US12702715B2",
  "about": "“Targeted RNA degradation allows precision repurposing of protein-targeted small molecule medicines to RNA” (University of Florida Research Foundation, Incorporated, priority 2020, dated 2026)",
  "key": {"FLT3": {"molecular_target": "T1, FLT3 (Homo sapiens, UniProt P36888)", "T1 construct": "endogenous in cells; host or cells: MDA-MB-231", "T1 sequence (P36888 27-993)": "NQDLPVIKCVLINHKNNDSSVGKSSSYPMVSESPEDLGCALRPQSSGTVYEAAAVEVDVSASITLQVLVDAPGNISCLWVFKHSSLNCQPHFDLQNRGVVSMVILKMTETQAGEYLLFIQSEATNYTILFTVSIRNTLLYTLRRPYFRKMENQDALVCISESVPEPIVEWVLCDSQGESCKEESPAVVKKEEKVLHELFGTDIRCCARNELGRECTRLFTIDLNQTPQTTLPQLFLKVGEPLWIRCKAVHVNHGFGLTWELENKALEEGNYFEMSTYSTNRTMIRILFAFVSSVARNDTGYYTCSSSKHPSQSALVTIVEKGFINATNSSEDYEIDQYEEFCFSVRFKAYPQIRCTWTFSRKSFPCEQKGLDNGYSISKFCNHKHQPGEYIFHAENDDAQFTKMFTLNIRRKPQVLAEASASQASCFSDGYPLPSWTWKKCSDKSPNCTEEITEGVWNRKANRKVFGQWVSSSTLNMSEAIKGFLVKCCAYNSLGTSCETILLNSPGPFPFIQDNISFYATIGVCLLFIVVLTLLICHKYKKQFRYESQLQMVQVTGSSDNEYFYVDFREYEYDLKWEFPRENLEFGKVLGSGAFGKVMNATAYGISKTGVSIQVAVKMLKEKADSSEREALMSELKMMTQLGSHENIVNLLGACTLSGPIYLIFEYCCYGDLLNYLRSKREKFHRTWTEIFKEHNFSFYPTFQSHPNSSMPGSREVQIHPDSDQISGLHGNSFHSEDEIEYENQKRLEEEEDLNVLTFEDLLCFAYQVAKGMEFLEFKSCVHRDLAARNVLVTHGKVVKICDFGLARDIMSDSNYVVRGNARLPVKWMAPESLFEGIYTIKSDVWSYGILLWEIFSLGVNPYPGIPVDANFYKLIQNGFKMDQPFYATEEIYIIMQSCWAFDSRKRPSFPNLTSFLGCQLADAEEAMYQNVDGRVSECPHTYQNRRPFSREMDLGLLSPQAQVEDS", "test": "Cellular Chem-CLIP/C-Chem-CLIP to study occupancy of an RTK", "assay_type": "cell-based", "description": "Cellular Chem-CLIP/C-Chem-CLIP to Study Occupancy of an RTK. Compound treatment and isolation of cells was completed as described for cellular occupancy studies of pre-miR-21. Total protein was extracted and concentration determined as described in the “Western Blotting” section. Approximately 1 mg of total protein was used for following pull-down experiments, using a protocol adapted from a previously published method 8. Protein cross-linked to the probe were clicked to disulfide biotin azide as described above except the amount of each reagents was doubled (20 μL/sample). Then, to the mixture was added ice-cold, 4:1 mixture of methanol/chloroform (2.5 mL) followed by 1 mL of ice-cold 1×DPBS. The mixture was centrifuged at 5000×g for 10 min at 4° C. to fractionate a protein interphase between organic and aqueous layers. […] The washed protein mixture was centrifuged at 5000×g for 10 min at 4° C. to pellet the protein. The pellet was dissolved in H2O, and to this solution was added 20 μLL streptavidin beads for 30 min at room temperature. The solution was removed, and the beads were washed once with 0.2% SDS in 1×DPBS, twice with detergent-free 1×DPBS and twice with nanopure water. After these washing steps, protein was cleaved as described above. The supernatant was collected, and protein concentration was determined with Pierce Micro BCA Protein Assay kit. […] Sample preparation was completed as described above for cellular Chem-CLIP studies. Western blotting was performed on total protein (10 μg) before or after pull-down, indicated as “Input” or “Output”, as described in Western Blotting."}, "RNase L": {"molecular_target": "RNase L (Homo sapiens, UniProt Q05823)", "sequence (Q05823 whole entry, species assumed)": "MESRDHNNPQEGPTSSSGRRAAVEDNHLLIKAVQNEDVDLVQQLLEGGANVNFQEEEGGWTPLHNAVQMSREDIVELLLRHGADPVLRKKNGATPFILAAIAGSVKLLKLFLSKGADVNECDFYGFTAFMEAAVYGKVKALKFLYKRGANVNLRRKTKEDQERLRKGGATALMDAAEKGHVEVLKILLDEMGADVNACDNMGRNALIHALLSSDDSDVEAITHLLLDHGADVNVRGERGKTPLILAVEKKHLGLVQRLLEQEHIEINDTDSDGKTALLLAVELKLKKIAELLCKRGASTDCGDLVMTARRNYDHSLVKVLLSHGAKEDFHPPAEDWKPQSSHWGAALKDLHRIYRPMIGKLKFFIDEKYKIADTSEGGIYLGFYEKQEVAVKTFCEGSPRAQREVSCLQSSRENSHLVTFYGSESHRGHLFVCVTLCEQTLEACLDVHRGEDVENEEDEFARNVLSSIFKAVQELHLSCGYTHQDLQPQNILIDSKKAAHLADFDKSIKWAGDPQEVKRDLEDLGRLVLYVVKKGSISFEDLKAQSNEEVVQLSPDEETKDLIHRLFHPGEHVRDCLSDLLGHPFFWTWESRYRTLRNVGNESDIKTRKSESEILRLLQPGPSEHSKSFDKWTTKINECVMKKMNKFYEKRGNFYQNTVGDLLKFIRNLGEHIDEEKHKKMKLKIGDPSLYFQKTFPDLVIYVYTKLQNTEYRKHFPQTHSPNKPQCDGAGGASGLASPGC", "test": "In vitro RNase L oligomerization", "assay_type": "biochemical", "description": "In Vitro RNase L Oligomerization. To a solution of RNase L (3 μM) in 1× RNase L Buffer (add components) was added MgCl2, fresh β-mercaptoethanol, and ATP to final concentrations of 10 mM, 7 mM, and 50 μM respectively. The oligomerization of RNase L induced by small molecules was assessed as previously reported^6. The monomeric and oligomeric RNase L protein was resolved by Western blot and detected using an RNase L primary antibody (1:6000 dilution; Cell Signaling Technology, D4B4J). The blot was incubated with the antibody in 1×TBST (Tris-buffered saline supplemented with 0.1% (v/v) Tween-20) and 5% (w/v) nonfat dry milk at 4° C. overnight. After washing, the blot was incubated with 1:12000 anti-rabbit IgG, HRP-linked Antibody (Cell Signaling Technology, 7074S) in 1×TBST with 5% (w/v) nonfat dry milk for 1 h at room temperature. After washing with 1×TBST for 10 min three times, monomeric and oligomerized RNase L protein was detected by using SuperSignal West Pico Chemiluminescent Substrate (Pierce Biotechnology). ImageJ software was used for quantification."}, "[1]": {"tested_on": "3×2 RNA internal loop library (3×2 ILL)", "test": "AbsorbArray 2DCS selection with Inforna fitness analysis", "assay_type": "binding, human", "description": "Construction of AbsorbArray Small Molecule Microarrays. Microarrays were constructed as previously reported^4. Briefly, a 1% agarose solution was poured onto a glass slide and dried on the benchtop. A 200 nL aliquot of 68 hit compounds (10 mM in DMSO) was pinned onto the array from a 384-well plate using Biomek NXP Laboratory Automation Workstation. Slides were then dried overnight to obtain a thin, invisible agarose layer. Slides were washed three times with 1×PBST^5 and then three times with nanopure water. Slides were dried completely in the air before RNA selection, completed by Two-Dimensional Combinatorial Screening (2DCS).\nRNA Selection and Screening by 2DCS. The 3×2 RNA ILL was 5′-end ^32P-labeled as previously described^7 and 2DCS selections were completed as previously described 4. All oligonucleotides were folded as described in the “Solution-based Dye Displacement Assay” section. Small molecule microarrays were pre-equilibrated by 3 mL 1× AB2 for 5 min. After removing the pre-equilibration buffer, 5′-end labeled folded 3×2 RNA ILL (~50,000 cpm) was added in 3 mL 1× AB2 containing 1 mM MgCl2 in the presence of competitor oligonucleotides (100 μM each). The oligonucleotide solution was evenly distributed across the microarray surface with a custom-cut piece of Parafilnm. After incubating for 30 min at room temperature, the Parafilm was removed, and the slide was washed gently by submersion in 1× AB2 for 30 s. This washing step was repeated three additional times, and the array was dried on the benchtop for 1 h. […] To harvest and collect the bound RNAs from the ILL, 1 μL of nanopure water was added to each spot. After 30 s, the water drop was absorbed into agarose gel, hydrating it such that it could be excised with a toothpick. The RNAs were eluted from the agarose by simple incubation with water, and then treated with RNase-free DNase I. A unique barcode for each small molecule was installed by reverse transcription (RT). Barcoded RNAs were amplified by PCR, purified, and identified by next-generation sequencing (NGS) using an Ion Proton deep sequencer using PI chips (60-80 million reads) as previously described^2."}},
  "note": "Entries after “also recorded” stand apart in the source; their conditions may differ.",
  "data": [
    {"smiles": "CCOC(=O)C1=C(Nc2ccccc2)S/C(=C\\c2ccc(OCCOCCOCCOCCNC(=O)NCCN3CCN(c4ccc5[nH]c(-c6c(N)c7c(F)cccc7[nH]c6=O)nc5c4)CC3)c(O)c2)C1=O", "note": "[Compound 2, Ribotac-Dovitinib]", "values": [
      {"measurement": "fold decrease / difference in cellular protein occupancy versus 1", "setting": "FLT3", "result": 100, "unit": "fold"},
      {"measurement": "competition of FLT3 enrichment by probe 4", "setting": "FLT3; 0.01-10 μM pre-treatment", "result": "competed off"},
      {"measurement": "IC50", "setting": "FLT3; C-Chem-CLIP, MDA-MB-231, read-out: IC50 for inhibition of the Chem-CLIP probe binding to FLT3", "result": 10, "unit": "µM"},
      {"measurement": "concentration competing off probe 4 from FLT3 to the same extent", "setting": "FLT3; probe 4 1 μM", "result": 10, "unit": "µM"},
      {"measurement": "RNase L oligomerization / dimerization", "setting": "RNase L", "result": "recruits and dimerizes; also recorded: oligomerized RNase L in a dose dependent manner"}
    ]},
    {"smiles": "CN1CCN(c2ccc3nc(-c4c(N)c5c(F)cccc5[nH]c4=O)[nH]c3c2)CC1", "note": "[Compound 1, Dovitinib, reference compound]", "values": [
      {"measurement": "number of binding RNA motifs", "setting": "[1]; Zobs>8", "result": 256},
      {"measurement": "Fitness score of A bulge (5'GAC/3'C_G) in the Dicer processing site of pre-miR-21", "setting": "[1]; normalized to most significant motif = 100", "result": 85}
    ]},
    {"smiles": "C#CCCC1(CCC(=O)NCCN2CCN(c3ccc4[nH]c(-c5c(N)c6c(F)cccc6[nH]c5=O)nc4c3)CC2)N=N1", "note": "[Compound 4]", "values": [
      {"measurement": "enrichment of FLT3 by probe", "setting": "FLT3; MDA-MB-231", "result": "enriched"}
    ]}
  ]
}
